Assay results from US7479489B2, “Heterocyclic antiviral compounds” (Roche Palo Alto LLC, priority 2004, dated 2009).

Row | melting point | Structure (SMILES)
1 | 90 to 112 °C | CC(C)CCn1c(=O)c(C2=CS(=O)(=O)c3ccccc3N2)c(O)c2cc(F)cnc21
2 | > 250 °C | CC(C)CCn1c(=O)c(C2=CS(=O)(=O)c3ccc(C#N)cc3N2)c(O)c2ccccc21
3 | 194 to 197 °C | CC(C)CCn1c(=O)c(C2=CS(=O)(=O)c3ccccc3N2)c(O)c2cc(Cl)ccc21
4 | 90 to 110 °C | CC(C)CCn1c(=O)c(C2=CS(=O)(=O)c3ccc(Cl)cc3N2)c(O)c2ccccc21
5 | 85 to 87 °C | CC(C)CCN1C(=O)C(C2=CS(=O)(=O)c3ccccc3N2)=C(O)[C@@H]1C(C)(C)C
6 | 175 to 180 °C | COc1cc(CN2C(=O)C(C3=CS(=O)(=O)c4cc(NS(C)(=O)=O)ccc4N3)=C(O)[C@@H]2C(C)(C)C)ccc1F
7 | 138 to 147 °C | CC(C)(C)[C@H]1C(O)=C(C2=CS(=O)(=O)c3cc([N+](=O)[O-])ccc3N2)C(=O)N1Cc1ccc(F)cc1
8 | 146 to 155 °C | CC(C)(C)[C@H]1C(O)=C(C2=CS(=O)(=O)c3cc(N)ccc3N2)C(=O)N1Cc1ccc(F)cc1
9 | 150 to 156 °C | CC(C)(C)[C@H]1C(O)=C(C2=CS(=O)(=O)c3cc(NS(N)(=O)=O)ccc3N2)C(=O)N1Cc1ccc(F)cc1
10 | 105 to 110 °C | CC(C)(C)[C@H]1C(O)=C(C2=CS(=O)(=O)c3cc(N)ccc3N2)C(=O)N1CCC1CC1
11 | 140 to 145 °C | CC(C)(C)[C@H]1C(O)=C(C2=CS(=O)(=O)c3cc(NS(C)(=O)=O)ccc3N2)C(=O)N1CCC1CC1
12 | 98 to 100 °C | CC(C)CCN1C(=O)C(C2=CS(=O)(=O)c3ccccc3N2)=C(O)[C@@H]1C1CCCCC1
13 | 72 to 80 °C | CC[C@H](C)[C@H]1C(O)=C(C2=CS(=O)(=O)c3ccccc3N2)C(=O)N1CCC(C)C
14 | 88 to 95 °C | CC[C@H](C)[C@H]1C(O)=C(C2=CS(=O)(=O)c3ccccc3N2)C(=O)N1Cc1ccccc1
15 | 160 °C (dec.) | CC(C)C[C@H]1C(O)=C(C2=CS(=O)(=O)c3ccccc3N2)C(=O)N1Cc1ccc(F)cc1
16 | 180 °C (dec.) | O=C1C(C2=CS(=O)(=O)c3ccccc3N2)=C(O)[C@H](C2CCCCC2)N1Cc1ccc(F)cc1
17 | > 250 °C | O=C1C(C2=CS(=O)(=O)c3ccccc3N2)=C(O)[C@H](C2CCCCC2)N1Cc1ccc(F)cc1.[Na]

Further lines, the compound ahead of its results:

Row | Structure (SMILES) | melting point
18 | Cc1ccc2c(c1)c(O)c(C1=CS(=O)(=O)c3ccccc3N1)c(=O)n2Cc1ccc(F)cc1 | 247 to 249 °C
19 | Cc1ccc2c(c1)c(O)c(C1=CS(=O)(=O)c3ccccc3N1)c(=O)n2Cc1ccc(F)cc1.[Na] | > 250 °C
20 | O=c1c(C2=CS(=O)(=O)c3cc(OCc4ccccc4)ccc3N2)c(O)c2cc(F)ccc2n1Cc1ccc(F)cc1 | 242 to 244 °C
21 | Nc1ccc2c(c1)S(=O)(=O)C=C(c1c(O)c3ccccc3n(CCC3CC3)c1=O)N2 | > 250 °C
22 | Nc1ccc2c(c1)S(=O)(=O)C=C(c1c(O)c3cc(F)ccc3n(Cc3ccc(F)cc3)c1=O)N2 | > 250 °C
23 | CC(=O)Nc1ccc2c(c1)S(=O)(=O)C=C(c1c(O)c3cc(F)ccc3n(Cc3ccc(F)cc3)c1=O)N2 | > 250 °C
24 | O=c1c(C2=CS(=O)(=O)c3ccccc3N2)c(O)c2cc(F)ccc2n1Cc1ccc(F)c(F)c1 | 230 to 235 °C
25 | O=c1c(C2=CS(=O)(=O)c3ccccc3N2)c(O)c2cc(F)ccc2n1Cc1ccc(F)c(F)c1.[Na] | 230 to 235 °C
26 | N#Cc1cccc(Cn2c(=O)c(C3=CS(=O)(=O)c4ccccc4N3)c(O)c3cc(F)ccc32)c1 | > 250 °C
27 | N#Cc1cccc(Cn2c(=O)c(C3=CS(=O)(=O)c4ccccc4N3)c(O)c3cc(F)ccc32)c1.[Na] | > 250 °C
28 | CS(=O)(=O)Nc1ccc2c(c1)S(=O)(=O)C=C(c1c(O)c3cc(F)ccc3n(CCC3CC3)c1=O)N2.[Na] | > 250 °C
29 | CCCS(=O)(=O)Nc1ccc2c(c1)S(=O)(=O)C=C(c1c(O)c3cc(F)ccc3n(CCC3CC3)c1=O)N2 | 145 to 150 °C
30 | CCCS(=O)(=O)Nc1ccc2c(c1)S(=O)(=O)C=C(c1c(O)c3cc(F)ccc3n(CCC3CC3)c1=O)N2.[Na] | > 250 °C
31 | COc1ccc2c(c1)S(=O)(=O)C=C(c1c(O)c3cc(F)ccc3n(Cc3ccc(F)cc3)c1=O)N2 | > 250 °C
32 | COC(=O)COc1ccc2c(c1)S(=O)(=O)C=C(c1c(O)c3cc(F)ccc3n(Cc3ccc(F)cc3)c1=O)N2 | 200 to 207 °C
33 | O=c1c(C2=CS(=O)(=O)c3cc(NS(=O)(=O)C4CC4)ccc3N2)c(O)c2cc(F)ccc2n1CCC1CC1 | 145 to 155 °C
34 | CN(C)C(=O)COc1ccc2c(c1)S(=O)(=O)C=C(c1c(O)c3cc(F)ccc3n(Cc3ccc(F)cc3)c1=O)N2 | > 250 °C
35 | CN(c1ccc2c(c1)S(=O)(=O)C=C(c1c(O)c3cc(F)ccc3n(CCC3CC3)c1=O)N2)S(C)(=O)=O | 208 to 212 °C

Row | Structure (SMILES) | melting point
36 | Cc1noc(C)c1S(=O)(=O)Nc1ccc2c(c1)S(=O)(=O)C=C(c1c(O)c3cc(F)ccc3n(CCC3CC3)c1=O)N2 | 150 to 157 °C
37 | O=c1c(C2=CS(=O)(=O)c3cc(NS(=O)(=O)c4ccccc4)ccc3N2)c(O)c2cc(F)ccc2n1CCC1CC1 | > 200 °C
38 | CNC(=O)Nc1ccc2c(c1)S(=O)(=O)C=C(c1c(O)c3cc(F)ccc3n(CCC3CC3)c1=O)N2 | > 220 °C
39 | NC(=O)CCOc1ccc2c(c1)S(=O)(=O)C=C(c1c(O)c3cc(F)ccc3n(CCC3CC3)c1=O)N2 | > 250 °C
40 | CNC(=O)COc1ccc2c(c1)S(=O)(=O)C=C(c1c(O)c3cc(F)ccc3n(Cc3ccc(F)cc3)c1=O)N2 | > 240 °C
41 | CN(c1ccc2c(c1)S(=O)(=O)C=C(c1c(O)c3cc(F)ccc3n(Cc3ccc(F)cc3)c1=O)N2)S(C)(=O)=O | 214 to 218 °C
42 | CS(=O)(=O)Nc1ccc2c(c1)S(=O)(=O)C=C(c1c(O)c3cc(F)ccc3n(Cc3ccc(F)c(Cl)c3)c1=O)N2 | 166 to 174 °C
43 | COc1ccc2c(c1)c(O)c(C1=CS(=O)(=O)c3ccccc3N1)c(=O)n2CCC1CC1 | 220 to 221 °C
44 | CS(=O)(=O)Nc1ccc2c(c1)S(=O)(=O)C=C(c1c(O)c3cc(F)ccc3n(Cc3cccnc3)c1=O)N2 | 174 to 186 °C
45 | CS(=O)(=O)Nc1ccc2c(c1)S(=O)(=O)C=C(c1c(O)c3cc(F)ccc3n(CC3CCCCC3)c1=O)N2 | 184 to 203 °C
46 | CC(C)CCn1c(=O)c(C2=CS(=O)(=O)c3cc(NS(C)(=O)=O)ccc3N2)c(O)c2cc(F)ccc21 | 205 to 219 °C
47 | CS(=O)(=O)Nc1ccc2c(c1)S(=O)(=O)C=C(c1c(O)c3cc(F)ccc3n(Cc3ccc(F)c(F)c3)c1=O)N2 | 148.2 to 149.4 °C
48 | CS(=O)(=O)Nc1ccc2c(c1)S(=O)(=O)C=C(c1c(O)c3cc(F)ccc3n(Cc3ccc(F)c(C(F)(F)F)c3)c1=O)N2 | 185.8 to 187 °C
49 | O=c1c(C2=CS(=O)(=O)c3ccccc3N2)c(O)c2cc(Cl)ccc2n1CCC1CC1 | 227 to 229 °C
50 | CS(=O)(=O)Nc1ccc2c(c1)S(=O)(=O)C=C(c1c(O)c3cc(F)ccc3n(Cc3ccncc3)c1=O)N2.O=C(O)C(F)(F)F | 167 to 169 °C
51 | O=c1c(C2=CS(=O)(=O)c3ccccc3N2)c(O)c2ccccc2n1Cc1ccccc1F | > 200 °C
52 | CN1C(c2nc(Cc3ccc(F)cc3)c3ccccc3c2O)=CS(=O)(=O)c2cc(Cl)ccc21 | > 275 °C
53 | CN1C(c2nc(Cc3ccc(F)cc3)c3ccc(F)cc3c2O)=CS(=O)(=O)c2cc(Cl)ccc21 | 254 to 256 °C
